Laboratory results taken from patent publication US9549945B2, “Use of alkylated semi-synthetic glycosaminoglycosan ethers for the treatment of inflammation” (University of Utah Research Foundation, priority 2008, dated 2017).
Entries after “also recorded” stand apart in the source; their conditions may differ.

Experiments:
[1] = test system: LL-37 induced skin inflammation; assay: SAGE topical treatment in LL-37 rosacea model; format: in vivo, Balb/c mice; conditions: topical administration
Procedure: Balb/c mice were shaved […] area of skin on the back. We then began topical application of a hyaluronan-cased emollient containing 5% SAGEs (active emollient) or hyaluronic acid based emollient alone to this area of skin every 12 hours. Twenty-four hours later, we injected 40 μL of vehicle (PBS) or cationic peptide (at 320 μM concentration) subcutaneously into the shaved skin in the manner described previously. Injections and topical emollient applications were repeated every 12 h thereafter. Forty-eight hours after the initial injection (four injections in total), animals were lightly anesthetized as described previously. […] The intensity of erythema was assessed as a redness score (from 1 to 5), and the area of erythema was measured with calipers. […]
For each mouse, tissue biopsies (6 mm diameter hole punch) were taken immediately, weighted, frozen and stored at −80° C. Tissue MPO activity was measured using a method by Suzuki et. al. (Suzuki K, Ota H, Sasagawa S, Sakatani T, Fujikura T. Assay method for myeloperoxidase in human polymorphonuclear leukocytes. Anal Biochem 132:345-352, 1983) as modified by Young et. al. (Young J M, Spires D A, Bedord C J, Wagner B, Ballaron S J, De oung LM. The mouse ear inflammatory response to topical arachidonic acid. J Invest Dermatol 82:367-371, 1984). […] MPO enzyme activity was assessed at an absorbance wavelength of 630 nm. […]

[2] = test system: RAGE expression in ARPE-19 cells; assay: AGE (CML-BSA)-induced RAGE expression in ARPE-19 cells (immunoblot); format: cell-based, human; conditions: ARPE-19 cells on CML-BSA coated plates
Procedure: Experiments studying the biology of RAGE in cultured RPE cells using the ARPE-19 human RPE cell line were conducted. As shown in immunoblots (FIG. 17), ARPE-19 cells express at least 4 isoforms of RAGE ranging from 45-50 kDa in cell lysates, and secrete these isoforms into conditioned media. […] Because RAGE ligation activates the transcription factor NF-κB, enhanced expression of RAGE greatly promotes pro-inflammatory signaling. […] This would prevent “feed-forward” pro-inflammatory increases in RAGE expression itself by RAGE ligation.

[3] = test system: ARPE-19 cells; assay: AGE-BSA induced apoptosis of ARPE-19 cells (Live/Dead stain); format: cell-based, human; conditions: AGE-BSA 25 μM, 40 h; test substance 200 μM
Procedure: The ability of AGE products to induce RPE cell apoptosis was investigated. ARPE-19 cells were grown to confluence on round coverslips, then transferred to new dishes for exposure to 25 μM AGE-BSA for 40 h. Apoptosis was then assayed with Molecular Probes Fixable Live/Dead Cell Stain Kit (L11101, Eugene, Oreg.). […] Nuclei are stained […] with DAPI; dead cells are stained green. A. BSA control. Some dead cells are noted at the edges of the coverslip, but live and dead cells are interspersed at the interface. B. AGE-BSA (25 μM). Significant cell death is seen around the edges, and the boundary between live and dead cells is stark. C. AGE-BSA (25 μM)+ODSH (200 μM).

[4] = biological target: T1, Hageman factor (Factor XII) (Homo sapiens, UniProt P00748); assay: Hageman factor (Factor XII) activation in pooled human plasma, amidolytic activity; format: biochemical; conditions: FIG. 19
T1 construct: from tissue; host or cells: pooled human plasma
T1 sequence (P00748 20-615): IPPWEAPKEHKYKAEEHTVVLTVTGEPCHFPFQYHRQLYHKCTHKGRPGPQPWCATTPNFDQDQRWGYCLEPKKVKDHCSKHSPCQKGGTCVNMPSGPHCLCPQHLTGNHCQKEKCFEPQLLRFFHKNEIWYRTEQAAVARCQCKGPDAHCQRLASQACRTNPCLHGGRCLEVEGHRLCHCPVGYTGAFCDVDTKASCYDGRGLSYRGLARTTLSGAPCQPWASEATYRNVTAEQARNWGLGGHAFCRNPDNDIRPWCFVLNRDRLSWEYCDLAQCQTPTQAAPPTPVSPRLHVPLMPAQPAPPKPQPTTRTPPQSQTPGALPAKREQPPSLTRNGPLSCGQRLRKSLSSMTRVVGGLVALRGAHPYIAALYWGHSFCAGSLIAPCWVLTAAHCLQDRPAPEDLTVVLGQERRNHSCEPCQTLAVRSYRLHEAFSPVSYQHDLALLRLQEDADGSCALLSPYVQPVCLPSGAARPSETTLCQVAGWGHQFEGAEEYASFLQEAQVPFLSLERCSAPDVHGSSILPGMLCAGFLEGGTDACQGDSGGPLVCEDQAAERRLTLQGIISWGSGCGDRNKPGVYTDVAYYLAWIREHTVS
Procedure: Nat Biotech 26:669-675, 2008). […] Amidolytic activity specific for active kallikrein was determined by adding D-Pro-Phe-Arg-p-NA and following change in absorbance at […].

[5] = test system: Xa; assay: Anti-Xa anticoagulant activity; format: biochemical
[6] = test system: IIa; assay: Anti-IIa anticoagulant activity; format: biochemical

Question: What does the source list for “Hyaluronic acid [HA, reference compound]”?
Answer: MPO activities in LL-37 rosacea model, SAGE vs. HA [1]: did not alleviate; inflammation in LL-37 rosacea model, SAGE vs. HA [1]: did not alleviate inflammation

Question: 2-O, 3-O desulfated heparin [ODSH] was tested. Which “up-regulation of RAGE expression by CML-BSA” value [2] did it give?
Answer: prevented up-regulation of RAGE expression

Question: And the AGE-induced apoptosis [3]?
Answer: some protection but significant apoptosis still occurs; also recorded: reduced

Question: Which “concentration that activates Factor XII” value [4] does the source give for heparin here?
Answer: 400 ng/mL

Question: What about the anti-Xa anticoagulant activity [5] of the same substance?
Answer: 150 U/mg

Question: What about the anti-IIa anticoagulant activity [6] of the same substance?
Answer: 150 U/mg
